Data: patent publication US20210070747A1, “2(1H)-QUINOLINONE DERIVATIVE” (priority 2017, published 2021)
Like-named read-outs stand apart in the source and are kept apart here.

Assays:
[1] = molecular target: T1, E. coli DNA gyrase (Escherichia coli, UniProt P0AES6); experiment: Test for evaluating the activity of inhibiting E. coli DNA gyrase enzyme (Method 2, supercoiling, recombinant gyrA/gyrB complex); format: biochemical
T1 construct: made in house; host or cells: E. coli BL21 (DE3)
Method: The enzymatic activity of E. coli DNA gyrase was measured by a method comprising reacting DNA gyrase and its substrate, relaxed pBR322 (Inspiralis), in the presence of ATP and detecting the post-reaction supercoiled pBR322/relaxed pBR322 ratio with H19.
Specifically, to 1 ng/μL of relaxed pBR322, E. coli DNA gyrase enzyme (the gyrA or gyrB gene was incorporated into the pET15b plasmid and after expressing them in E. coli BL21 (DE3), purification was performed using a Ni-NTA column to form a complex at room temperature) was added at a final concentration of 0.135 nmol/mL and the mixture was incubated for 60 minutes at room temperature. This reaction was carried out in 20 mmol/L tris-HCl buffered solution (pH 8.0) comprising 0.5 mmol/L ATP, 0.005% bridge 35, 35 mmol/L ammonium acetate, 8 mmol/L magnesium chloride, 4.6% glycerol, and 1 mmol/L dithiothreitol. To the reaction mixture, H19 was added to bring the reaction to an end; thereafter, the supercoiled pBR322/relaxed pBR322 ratio was detected at excitation wavelength/emission wavelength=485 nm/535 nm. An inhibition curve was obtained by allowing the analyte compound to be present at varying concentrations during the reaction described above.

[2] = tested on: E. Coli ATCC 25922; experiment: Test for evaluating antibacterial activity (E. coli), broth microdilution MIC; format: cell-based; conditions: Escherichia coli, ATCC25922; 35° C., 18 hours, cation-adjusted Mueller-Hinton medium
Method: Minimum inhibitory concentration (MIC) was measured using the broth microdilution method described below in accordance with a modification of the standard method specified by CLSI (Clinical & Laboratory Standards Institute).
Bacterial cells under test were cultured overnight on a heart infusion agar medium, scraped off and suspended at a concentration equivalent to McFarland 0.5 turbidity; the suspension thus obtained was diluted 10 folds to give a liquid inoculum. The inoculum (0.005 mL) was inoculated on a cation-adjusted Mueller-Hinton medium containing the analyte compound and cultured at 35° C. for 18 hours. A minimum drug concentration at which no bacterial growth was macroscopically visible was designated MIC.

[3] = Method 2, read-out: E. Coli Gyrase supercoiling IC50

SMILES | IC50 [1] | MIC [2] | IC50 [1, 3] | inhibition at 10 µM ([1]; Method 2, at 10000 nM)
CNc1cc(F)cc2cc(C(=O)Nc3cnc(C(=O)NCCN4CCCCC4)nc3)c(=O)[nH]c12.O=CO [Example 90, 6-fluoro-8-(methylamino)-2-oxo-N-(2-{[2-(piperidine-1-yl)ethyl]carbamoyl}pyrimidine-5-yl)-1,2-dihydroquinoline-3-carboxamide-formate] | 2.45 nM | > 16 µg/mL | – | –
CNc1cc(F)cc2c(N[C@H]3C[C@@H](N)C3)c(C(=O)Nc3ccc(C(=O)O)cc3)c(=O)[nH]c12 [Example 142, 4-({4-[(cis-3-aminocyclobutyl)amino]-6-fluoro-8-(methylamino)-2-oxo-1,2-dihydroquinoline-carbonyl}amino) 3-benzoic acid-formate] | – | > 32 µg/mL | 2.66 nM | –
CNc1cc(F)cc2c(NC3CC34CCNCC4)c(C(=O)Nc3ccc(C(=O)O)cc3)c(=O)[nH]c12.O=CO (centres unmarked) [Example 139, 4-({4-[(6-azaspiro[2.5]octane-1-yl)amino]-6-fluoro-8-(methylamino)-2-oxo-1,2-dihydroquinoline-3-carbonyl}amino)benzoic acid-formate] | 6.94 nM | > 64 µg/mL | – | –
CNc1cc(F)cc2c(NCC3CCNCC3)c(C(=O)Nc3ccc(C(=O)O)cc3)c(=O)[nH]c12.O=CO [Example 137, 4-{[6-fluoro-8-(methylamino)-2-oxo-4-{[(piperidine-4-yl)methyl]amino}-1,2-dihydroquinoline-3-carbonyl]amino}benzoic acid-formate] | 1.31 nM | > 32 µg/mL | – | –
CCCCCN(CCCCC)Cc1cc(C(=O)O)ccc1NC(=O)c1cc2cc(F)cc(NC)c2[nH]c1=O [Example 101, 3-[(dipentylamino)methyl]-4-{[6-fluoro-8-(methylamino)-2-oxo-1,2-dihydroquinoline-3-carbonyl]amino} benzoic acid] | – | – | 0.8 nM | –
CNc1cc(F)cc2cc(C(=O)Nc3ccc(C(=O)O)cc3/C=C/CCN(C)C)c(=O)[nH]c12.Cl [Example 125, 3-[(1E)-4-(dimethylamino)but-1-en-1-yl]-4-{[6-fluoro-8-(methylamino)-2-oxo-1,2-dihydroquinoline-3-carbonyl]amino}benzoic acid-hydrochloride] | 24.6 nM | > 32 µg/mL | – | –
CNc1cc(F)cc2cc(C(=O)Nc3nccn3C)c(=O)[nH]c12 [Example 87, 6-fluoro-8-(methylamino)-N-(1-methyl-1H-imidazole-2-yl)-2-oxo-1,2-dihydroquinoline-3-carboxamide] | – | – | 1040 nM | –
CNc1cc(F)cc2cc(C(=O)N(C)c3cncnc3)c(=O)[nH]c12 [Example 61, 6-fluoro-N-methyl-8-(methylamino)-2-oxo-N-(pyrimidine-5-yl)-1,2-dihydroquinoline-3-carboxamide] | – | – | 334 nM | –
CNc1cc(F)cc2cc(C(=O)Nc3ccc(CO)cc3CN(CCO)C3CCCCC3)c(=O)[nH]c12 [Example 124, N-[2-{[cyclohexyl(2-hydroxyethyl)amino]methyl}-4-(hydroxymethyl)phenyl]-6-fluoro-8-(methylamino)-2-oxo-1,2-dihydroquinoline-3-carboxamide] | – | – | 1.6 nM | –
CNc1cc(F)cc2cc(C(=O)Nc3ccc(C(=O)O)cc3CCC3CCCCC3)c(=O)[nH]c12 [Example 102, 3-(2-cyclohexylethyl)-4-{[6-fluoro-8-(methylamino)-2-oxo-1,2-dihydroquinoline-3-carbonyl]amino} benzoic acid] | 228 nM | – | – | –
CNc1cccc2cc(C(=O)Nc3ccc(C(=O)NC(CO)CO)cc3)c(=O)[nH]c12 [Example 38, N-{4-[(1,3-dihydroxypropane-2-yl)carbamoyl]phenyl}-8-(methylamino)-2-oxo-1,2-dihydroquinoline-3-carboxamide] | – | – | 4730 nM | –
CNc1cc(F)cc2cc(C(=O)Nc3ccn(C)n3)c(=O)[nH]c12 [Example 88, 6-fluoro-8-(methylamino)-N-(1-methyl-1H-pyrazole-3-yl)-2-oxo-1,2-dihydroquinoline-3-carboxamide] | – | – | – | 41%
